Test results: the supplement of paper PMC10307832

Tests used:
Test in all cases: relative viability (nuclei count vs DMSO), 5 days (fraction); higher = more cells survive
NCI-H2126 = test system: NCI-H2126
How it was run: (§1)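 A single step with final 0.05% Triton X-100, 1% formaldehyde and 1 ug/ml Hoechst fixed the cells and stained nuclei 5 days after treatment. Lung cancer cell lines in 1536-well plates had been treated by pin tool the day after seeding with one drug alone or a fixed anchor-drug dose plus five library-drug doses (not always all listed) in √10 steps, and nuclei were counted on 4× images. Relative viability is the ratio of nuclei in treated wells to nuclei in vehicle wells, taken as the median of duplicate plates.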

LCLC-103H = test system: LCLC-103H
How it was run: as §1

HOP-62 = test system: HOP-62
How it was run: as §1

NCI-H441 = test system: NCI-H441
How it was run: as §1

NCI-H1993 = test system: NCI-H1993
How it was run: as §1

HCC-827 = test system: HCC-827
How it was run: as §1

SK-MES-1 = test system: SK-MES-1
How it was run: as §1

BEN = test system: BEN
How it was run: as §1

ChaGo-K-1 = test system: ChaGo-K-1
How it was run: as §1

LXF-289 = test system: LXF-289
How it was run: as §1

NCI-H661 = test system: NCI-H661
How it was run: as §1

PC-14 = test system: PC-14
How it was run: as §1

LOU-NH91 = test system: LOU-NH91
How it was run: as §1

NCI-H647 = test system: NCI-H647
How it was run: as §1

NCI-H1355 = test system: NCI-H1355
How it was run: as §1

NCI-H727 = test system: NCI-H727
How it was run: as §1

NCI-H1437 = test system: NCI-H1437
How it was run: as §1

NCI-H2170 = test system: NCI-H2170
How it was run: as §1

NCI-H1944 = test system: NCI-H1944
How it was run: as §1

LK-2 = test system: LK-2
How it was run: as §1

RERF-LC-KJ = test system: RERF-LC-KJ
How it was run: as §1

NCI-H1666 = test system: NCI-H1666
How it was run: as §1

EKVX = test system: EKVX
How it was run: as §1

SMILES: CCNC(=O)c1noc(-c2cc(C(C)C)c(O)cc2O)c1-c1ccc(CN2CCOCC2)cc1 [Luminespib] + CC(=O)Nc1cccc(-n2c(=O)n(C3CC3)c(=O)c3c(Nc4ccc(I)cc4F)n(C)c(=O)c(C)c32)c1 [Trametinib] (partner 0.02 µM)
- relative viability (NCI-H2126; first compound 0.002 µM): 0.608
- relative viability (NCI-H2126; first compound 0.006325 µM): 0.608
- relative viability (NCI-H2126; first compound 0.06325 µM): 0.667
- relative viability (NCI-H2126; first compound 0.2 µM): 0.599
- relative viability (LCLC-103H; first compound 0.002 µM): 0.625
- relative viability (LCLC-103H; first compound 0.006325 µM): 0.657
- relative viability (LCLC-103H; first compound 0.02 µM): 0.699
- relative viability (LCLC-103H; first compound 0.06325 µM): 0.693
- relative viability (LCLC-103H; first compound 0.2 µM): 0.689
- relative viability (HOP-62; first compound 0.002 µM): 0.37
- relative viability (HOP-62; first compound 0.006325 µM): 0.351
- relative viability (HOP-62; first compound 0.02 µM): 0.311
- relative viability (HOP-62; first compound 0.06325 µM): 0.309
- relative viability (HOP-62; first compound 0.2 µM): 0.183
- relative viability (NCI-H441; first compound 0.002 µM): 0.555
- relative viability (NCI-H441; first compound 0.006325 µM): 0.465
- relative viability (NCI-H441; first compound 0.02 µM): 0.271
- relative viability (NCI-H441; first compound 0.06325 µM): 0.0929
- relative viability (NCI-H441; first compound 0.2 µM): 0.11
- relative viability (NCI-H1993; first compound 0.002 µM): 0.562
- relative viability (NCI-H1993; first compound 0.006325 µM): 0.424
- relative viability (NCI-H1993; first compound 0.02 µM): 0.488
- relative viability (NCI-H1993; first compound 0.06325 µM): 0.461
- relative viability (NCI-H1993; first compound 0.2 µM): 0.474
- relative viability (HCC-827; first compound 0.002 µM): 0.533
- relative viability (HCC-827; first compound 0.006325 µM): 0.506
- relative viability (HCC-827; first compound 0.02 µM): 0.279
- relative viability (HCC-827; first compound 0.06325 µM): 0.154
- relative viability (HCC-827; first compound 0.2 µM): 0.15
- relative viability (SK-MES-1; first compound 0.002 µM): 0.551
- relative viability (SK-MES-1; first compound 0.006325 µM): 0.469
- relative viability (SK-MES-1; first compound 0.02 µM): 0.576
- relative viability (SK-MES-1; first compound 0.06325 µM): 0.177
- relative viability (SK-MES-1; first compound 0.2 µM): 0.166
- relative viability (BEN; first compound 0.002 µM): 1.11
- relative viability (BEN; first compound 0.006325 µM): 1
- relative viability (BEN; first compound 0.02 µM): 0.481
- relative viability (BEN; first compound 0.06325 µM): 0.748
- relative viability (BEN; first compound 0.2 µM): 0.341
- relative viability (ChaGo-K-1; first compound 0.002 µM): 0.831
- relative viability (ChaGo-K-1; first compound 0.006325 µM): 0.873
- relative viability (ChaGo-K-1; first compound 0.02 µM): 0.884
- relative viability (ChaGo-K-1; first compound 0.06325 µM): 0.861
- relative viability (ChaGo-K-1; first compound 0.2 µM): 0.892
- relative viability (LXF-289; first compound 0.002 µM): 0.691
- relative viability (LXF-289; first compound 0.006325 µM): 0.649
- relative viability (LXF-289; first compound 0.02 µM): 0.669
- relative viability (LXF-289; first compound 0.06325 µM): 0.622
- relative viability (LXF-289; first compound 0.2 µM): 0.624
- relative viability (NCI-H661; first compound 0.002 µM): 0.56
- relative viability (NCI-H661; first compound 0.006325 µM): 0.553
- relative viability (NCI-H661; first compound 0.02 µM): 0.382
- relative viability (NCI-H661; first compound 0.06325 µM): 0.265
- relative viability (NCI-H661; first compound 0.2 µM): 0.256
- relative viability (PC-14; first compound 0.002 µM): 0.738
- relative viability (PC-14; first compound 0.006325 µM): 0.652
- relative viability (PC-14; first compound 0.02 µM): 0.243
- relative viability (PC-14; first compound 0.06325 µM): 0.0663
- relative viability (PC-14; first compound 0.2 µM): 0.0601
- relative viability (LOU-NH91; first compound 0.002 µM): 0.807
- relative viability (LOU-NH91; first compound 0.006325 µM): 0.775
- relative viability (LOU-NH91; first compound 0.02 µM): 0.6
- relative viability (LOU-NH91; first compound 0.06325 µM): 0.417
- relative viability (LOU-NH91; first compound 0.2 µM): 0.385
- relative viability (NCI-H647; first compound 0.002 µM): 0.507
- relative viability (NCI-H647; first compound 0.006325 µM): 0.508
- relative viability (NCI-H647; first compound 0.02 µM): 0.195
- relative viability (NCI-H647; first compound 0.06325 µM): 0.0973
- relative viability (NCI-H647; first compound 0.2 µM): 0.0815
- relative viability (NCI-H1355; first compound 0.002 µM): 0.421
- relative viability (NCI-H1355; first compound 0.006325 µM): 0.445
- relative viability (NCI-H1355; first compound 0.02 µM): 0.265
- relative viability (NCI-H1355; first compound 0.06325 µM): 0.396
- relative viability (NCI-H1355; first compound 0.2 µM): 0.158
- relative viability (NCI-H727; first compound 0.002 µM): 0.422
- relative viability (NCI-H727; first compound 0.006325 µM): 0.397
- relative viability (NCI-H727; first compound 0.02 µM): 0.404
- relative viability (NCI-H727; first compound 0.06325 µM): 0.247
- relative viability (NCI-H727; first compound 0.2 µM): 0.253
- relative viability (NCI-H1437; first compound 0.002 µM): 0.595
- relative viability (NCI-H1437; first compound 0.006325 µM): 0.52
- relative viability (NCI-H1437; first compound 0.02 µM): 0.492
- relative viability (NCI-H1437; first compound 0.06325 µM): 0.325
- relative viability (NCI-H1437; first compound 0.2 µM): 0.217
- relative viability (NCI-H2170; first compound 0.002 µM): 0.915
- relative viability (NCI-H2170; first compound 0.006325 µM): 0.932
- relative viability (NCI-H2170; first compound 0.06325 µM): 0.896
- relative viability (NCI-H2170; first compound 0.2 µM): 0.841
- relative viability (NCI-H1944; first compound 0.002 µM): 0.467
- relative viability (NCI-H1944; first compound 0.006325 µM): 0.4
- relative viability (NCI-H1944; first compound 0.02 µM): 0.387
- relative viability (NCI-H1944; first compound 0.06325 µM): 0.405
- relative viability (NCI-H1944; first compound 0.2 µM): 0.354
- relative viability (LK-2; first compound 0.002 µM): 0.834
- relative viability (LK-2; first compound 0.006325 µM): 0.711
- relative viability (LK-2; first compound 0.02 µM): 0.637
- relative viability (LK-2; first compound 0.06325 µM): 0.164
- relative viability (LK-2; first compound 0.2 µM): 0.166
- relative viability (RERF-LC-KJ; first compound 0.002 µM): 0.867
- relative viability (RERF-LC-KJ; first compound 0.006325 µM): 0.903
- relative viability (RERF-LC-KJ; first compound 0.02 µM): 0.711
- relative viability (RERF-LC-KJ; first compound 0.06325 µM): 0.437
- relative viability (RERF-LC-KJ; first compound 0.2 µM): 0.21
- relative viability (NCI-H1666; first compound 0.002 µM): 0.845
- relative viability (NCI-H1666; first compound 0.006325 µM): 0.869
- relative viability (NCI-H1666; first compound 0.02 µM): 0.942
- relative viability (NCI-H1666; first compound 0.06325 µM): 0.818
- relative viability (NCI-H1666; first compound 0.2 µM): 0.982
- relative viability (EKVX; first compound 0.002 µM): 0.391
- relative viability (EKVX; first compound 0.006325 µM): 0.326
- relative viability (EKVX; first compound 0.02 µM): 0.219
- relative viability (EKVX; first compound 0.06325 µM): 0.165
- relative viability (EKVX; first compound 0.2 µM): 0.122
